Series [1] is described as follows: In vitro stability in physiological buffers with or without fatty acid free BSA. Conditions: 30 minutes at 37 degrees C. Format: physicochemical.
Series [2] in a line: Hydrolysis by rat plasma in vitro at 37 degrees C. The class given is in vitro ADME.
Series [3] relates to AMPA receptor. In words: Whole cell patch-clamp recording of s-AMPA induced currents in pyramidal neurons of rat brain prefrontal cortex slices. The class given is cell-based. Conditions: 20 μM s-AMPA, rat brain cortex slices. On the procedure: Additionally biological activity of compounds as antagonists of AMPA receptors or NMDA receptors (also called ionotropic glutamate-gated ion channels) were conducted using ex vivo functional electrophysiological assays of pyramidal neurons in slices of rat brain prefrontal cortex. Effects of test compounds cf. reference compounds were studied by whole cell patch-clamp electrophysiology recordings of s-AMPA-induced currents or NMDA-induced currents, respectively, using rat brain slice prefrontal cortex (layer V) pyramidal neurons.
Male Sprague Dawley rats were supplied by Charles River Laboratories (Wilmington, Mass. USA) and were housed 4 per cage within a temperature (20.5-23.5° C.) and humidity (30-80%) controlled environment on a 12 hour light/dark cycle with access to food (Teklad Global Soy Protein, Cat. No. T.2920X10, Envigo, Indianapolis, Ind., USA) and water ad libitum. At 4-6 weeks of age rats were terminally anaesthetized using isofluorane [(1-chloro-2,2,2-trifluoroethyl difluoromethyl ether) supplied by Baxter Healthcare Corp, Deerfield, Ill., USA], and decapitated. The brain was removed and 300 μm thick coronal prefrontal cortex (PFC) or sagittal hippocampal slices were sectioned using a Vibratome microtome. After brain removal, and throughout slicing, the tissue was submerged in ice cold […] cerebrospinal fluid (aCSF). Once slices were cut, they were transferred to a beaker containing aCSF and left at room temperature for a minimum of 1 hour before commencing electrophysiological recordings. After this period, individual slices were transferred to a recording chamber continuously perfused with aCSF at a rate of 4-6 mL/min before commencing experiment protocols. aCSF composition (in mM): NaCl, 127; KCl, 1.9; KH2PO4, 1.2; CaCl2), 2.4; MgCl2, 1.3; NaHCO3, 26; D-glucose, 10; in water equilibrated with 95% Oxygen gas-5% CO2 gas (reagent suppliers listed below). Experiments investigating NMDA currents had aCSF supplemented with 10 μM glycine (reagents suppliers listed below). All experiments were conducted following protocols with the approval of an Institutional Animal Care and Use Committee (IACUC).
Whole cell patch-clamp recordings were performed from Layer V prefrontal cortex pyramidal neurons at room temperature using the ‘visualized’ version of the patch-clamp technique. […]
All test compound experiments were carried out in the voltage-clamp recording configuration of the whole cell patch-clamp technique and all recordings performed at a holding potential of −60 mV. Recordings were monitored on a Dell personal computer (PC) running Axon pClamp software (Molecular Devices, Sunnyvale, Calif., USA) and digitized at 10 kHz. […]

[4] abbreviates: Tested at 1 pM (so in the source).

The source of these data is patent US11685726B2, “Pharmaceutical compositions of 6-(2-(2H-tetrazol-5-yl)ethyl)-6-fluorodecahydroisoquinoline-3-carboxylic acid and ester derivatives thereof” (Sea Pharmaceuticals LLC, priority 2020, dated 2023).

Where only a bound is given, the exact number is not on record here.

For the compound `O=C(O)[C@@H]1C[C@H]2CC(F)(CCc3nnn[nH]3)CC[C@H]2CN1` (stereo in doubt) [Compound 2, (3S,4aS,6R,8aR)-6-fluoro-6-[2-(1H-1,2,3,4-tetrazol-5-yl)ethyl]-decahydroisoquinoline-3-carboxylic acid], in series [1], the “stability in physiological buffers” value is “stable”. The “hydrolysis to Compound 1 by rat plasma in vitro” value in series [2] (incubated at 37 degrees C) is “within minutes”. The “hydrolysis by rat plasma after esterase inhibitor pretreatment” value in series [2] (plasma pretreated 37 degrees C 5 min with 10 micromolar methyl arachidonoyl fluoro phosphonate) is recorded as “blocked”. The “% inhibition +/- SEM of s-AMPA induced currents in neurons” value in series [3] (setting [4]) is given as 21.4 ± 2.1 (n = 3) %.
`O=C(O)[C@@H]1C[C@H]2C[C@@](F)(CCc3nnn[nH]3)CC[C@H]2CN1` [Compound 1, (3S,4aS,6S,8aR)-6-fluoro-6-[2-(1H-1,2,3,4-tetrazol-5-yl)ethyl]-decahydroisoquinoline-3-carboxylic acid]: the “% inhibition +/- SEM of s-AMPA induced currents in neurons” value in series [3] (setting [4]) is 55.6 ± 5.8 (n = 3) %; in series [3] (Tested at 10 pM (so in the source)) it was >90 (n = 1) %.
